Where a SMILES comes first, the peptide text is derived from it.
Tests used:
Format in all cases: cell-based
ELAM = assay: Assay 1: inhibition of adherence of neutrophils to ELAM-coated surfaces (FIG. 4); details: for % of inhibition ASSAY 1: peptide at 1 mg/ml, neutrophils on ELAM-coated surfaces
Method: In the study, the proteins PT, B-oligomer, S2, S3, S2/S3 and S3/S2 were taken up in an isotonic buffered tissue culture medium to a concentration of 50 ug/ml and the ability of each of them to inhibit adhesion of neutrophils to ELAM or GMP140 was determined as described by Wright et al J. Exp. Med. 158:2016 (1983). The buffer was employed as the control and each protein studied was compared to the control for the ability to decrease adhesion capacity.
Assay 1 is inhibition of adherence of enutrophils to ELAM-coated surfaces as described in connection with FIG. 4. Values ±20% inhibition are significant.

CR3 = assay: Assay 3: upregulation of integrins (CR3) on the surface of a neutrophil, detected with EC3bi (FIG. 5); details: for # of cells ASSAY 3: peptide at 1 mg/ml, upregulation of integrins on neutrophil; for ability to upregulate integrins on leukocytes, assay 3 (in words): peptides of Table 2
Method: EC3bi is an erythrocyte coated with the complement component C3bi and is used to detect the presence of CR3 on the surface of a leukocyte according to the procedure of Wright et al (supra).
The test was conducted with separate proteins in tissue culture as in the experiment described in connection with the previous figure.
Assay 3 measures upregulation of integrins on the surface of a neutorphil as described in FIG. 5. Values ±50% are significant.

endothelial cells = assay: Assay 2: inhibition of adherence of a neutrophil to a monolayer of endothelial cells; details: peptide at 1 mg/ml; for % of inhibition ASSAY 2: neutrophil on monolayer of endothelial cells; for activity in Assays 1 or 2 (in words): adherence of leukocytes to selectins or endothelial cells bearing selectins
From the text: Assay 2 is inhibition of adherence of a neutrophil to a monolayer of endothelial cells as described by Lo et al J. Exp. Med. 173:1493-1500 (1991). Values ±50% inhibition are significant.

Compound	% of inhibition ASSAY 1 (ELAM)	# of cells ASSAY 3 (CR3)	ability to upregulate integrins on leukocytes, assay 3 (in words) (CR3)	% of inhibition ASSAY 2 (endothelial cells)	activity in Assays 1 or 2 (in words) (endothelial cells)	inhibition of neutrophil/leukocyte adherence to ELAM (ELAM; protein at 50 ug/ml, compared to buffer control)
CC[C@H](C)[C@H](NC(=O)[C@H](C)NC(=O)[C@@H](N)C(C)C)C(=O)N[C@@H](CCC(N)=O)C(=O)N[C@@H](CC(N)=O)C(=O)N[C@@H](CCCCN)C(=O)N[C@@H](CCC(=O)O)C(=O)N[C@@H](CCC(=O)O)C(=O)N[C@H](C(=O)N[C@@H](CCC(=O)O)C(=O)N[C@@H](Cc1ccc(O)cc1)C(=O)N[C@@H](CC(C)C)C(=O)N[C@@H](CC(N)=O)C(=O)N[C@@H](CO)C(=O)N[C@H](C(=O)N[C@@H](CC(C)C)C(=O)N[C@@H](CO)C(=O)N[C@@H](Cc1ccc(O)cc1)C(=O)N[C@@H](CO)C(=O)O)[C@@H](C)CC)[C@@H](C)CC [SEQ ID NO:15, VAIQNKEEIEYLNSILSYS] (H-VAIQNKEEIEYLNSILSYS-OH)	22-52%	71 # of cells	ability to upregulate integrins on leukocytes	–	–	–
CC[C@H](C)[C@H](NC(=O)[C@H](C)NC(=O)[C@@H](NC(=O)[C@H](CC(C)C)NC(=O)[C@H](CC(=O)O)NC(=O)[C@@H](N)[C@@H](C)O)C(C)C)C(=O)N[C@@H](CCC(N)=O)C(=O)N[C@@H](CC(N)=O)C(=O)N[C@@H](CCCCN)C(=O)N[C@@H](C)C(=O)N[C@@H](CCC(=O)O)C(=O)N[C@H](C(=O)N[C@@H](CCC(=O)O)C(=O)N[C@@H](Cc1ccc(O)cc1)C(=O)N[C@@H](CC(C)C)C(=O)O)[C@@H](C)CC [SEQ ID NO:19, TDLVAIQNKAEIEYL] (H-TDLVAIQNKAEIEYL-OH)	–	104 # of cells	ability to upregulate integrins on leukocytes	80%	–	–
CC(C)C[C@H](NC(=O)[C@H](Cc1ccc(O)cc1)NC(=O)[C@@H](NC(=O)[C@H](CCC(N)=O)NC(=O)[C@H](CC(C)C)NC(=O)[C@H](CCC(=O)O)NC(=O)[C@H](C)NC(=O)[C@H](CC(N)=O)NC(=O)CNC(=O)[C@H](CC(C)C)NC(=O)[C@H](CCC(=O)O)NC(=O)[C@H](C)NC(=O)[C@@H](NC(=O)[C@@H](NC(=O)[C@H](CC(C)C)NC(=O)[C@H](C)N)[C@@H](C)O)C(C)C)[C@@H](C)O)C(=O)O [SEQ ID NO:26, ALTVAELGNAELQTYL] (H-ALTVAELGNAELQTYL-OH)	–	–	ability to upregulate integrins on leukocytes	–	active	–
CC[C@H](C)[C@H](NC(=O)[C@H](CO)NC(=O)[C@H](CC(N)=O)NC(=O)[C@H](CC(C)C)NC(=O)[C@H](Cc1ccc(O)cc1)NC(=O)[C@H](CCC(=O)O)NC(=O)[C@@H](NC(=O)[C@H](CCC(=O)O)NC(=O)[C@H](CCC(=O)O)NC(=O)[C@@H](N)CCCCN)[C@@H](C)CC)C(=O)N[C@@H](CC(C)C)C(=O)N[C@@H](CO)C(=O)N[C@@H](Cc1ccc(O)cc1)C(=O)N[C@@H](CO)C(=O)O [SEQ ID NO:29, KEEIEYLNSILSYS] (H-KEEIEYLNSILSYS-OH)	0-2%	73 # of cells	–	–	–	–
CC[C@H](C)[C@H](NC(=O)[C@H](C)NC(=O)[C@@H](NC(=O)[C@H](CC(C)C)NC(=O)[C@@H](N)[C@@H](C)O)C(C)C)C(=O)N[C@@H](CCC(N)=O)C(=O)N[C@@H](CC(N)=O)C(=O)N[C@@H](CCCCN)C(=O)N[C@@H](CCC(=O)O)C(=O)N[C@@H](CCC(=O)O)C(=O)N[C@H](C(=O)N[C@@H](CCC(=O)O)C(=O)N[C@@H](Cc1ccc(O)cc1)C(=O)N[C@@H](CC(C)C)C(=O)O)[C@@H](C)CC [SEQ ID NO:30, TLVAIQNKEEIEYL] (H-TLVAIQNKEEIEYL-OH)	–	243 # of cells	ability to upregulate integrins on leukocytes	80%	–	–
CC[C@H](C)[C@H](NC(=O)[C@H](C)NC(=O)[C@@H](N)C(C)C)C(=O)N[C@@H](CCC(N)=O)C(=O)N[C@@H](CC(N)=O)C(=O)N[C@@H](CCCCN)C(=O)N[C@@H](C)C(=O)N[C@@H](CCC(=O)O)C(=O)N[C@H](C(=O)N[C@@H](CCC(=O)O)C(=O)N[C@@H](Cc1ccc(O)cc1)C(=O)N[C@@H](CC(C)C)C(=O)N[C@@H](CCC(=O)O)C(=O)N[C@@H](CCCCN)C(=O)N[C@H](C(=O)N[C@@H](CC(C)C)C(=O)N1CCC[C@H]1C(=O)N[C@@H](Cc1ccccc1)C(=O)N[C@@H](CO)C(=O)O)[C@@H](C)O)[C@@H](C)CC [SEQ ID NO:31, VAIQNKAEIEYLEKTLPFS] (H-VAIQNKAEIEYLEKTLPFS-OH)	23-31%	163 # of cells	ability to upregulate integrins on leukocytes	–	–	–
CC[C@H](C)[C@H](NC(=O)[C@H](CCC(N)=O)NC(=O)[C@H](CCCNC(=N)N)NC(=O)[C@H](CC(C)C)NC(=O)[C@H](Cc1ccc(O)cc1)NC(=O)[C@@H](NC(=O)[C@H](CCC(N)=O)NC(=O)[C@H](CC(C)C)NC(=O)[C@H](CCC(=O)O)NC(=O)[C@H](C)N)[C@@H](C)O)C(=O)N[C@H](C(=O)N1CCC[C@H]1C(=O)NCC(=O)N[C@@H](Cc1c[nH]c2ccccc12)C(=O)N[C@@H](CO)C(=O)O)[C@@H](C)O [SEQ ID NO:32, AELQTYLRQITPGWS] (H-AELQTYLRQITPGWS-OH)	0-18%	122 # of cells	–	–	–	–
CC[C@H](C)[C@H](NC(=O)[C@H](C)NC(=O)[C@@H](N)C(C)C)C(=O)N[C@@H](CCC(N)=O)C(=O)N[C@@H](CC(N)=O)C(=O)N[C@@H](CCCCN)C(=O)N[C@@H](CC(N)=O)C(=O)N[C@@H](CCC(=O)O)C(=O)N[C@H](C(=O)N[C@@H](CC(=O)O)C(=O)N[C@@H](Cc1ccc(O)cc1)C(=O)N[C@@H](CC(C)C)C(=O)N[C@@H](CC(N)=O)C(=O)N[C@@H](CCCCN)C(=O)N[C@H](C(=O)N[C@@H](CC(C)C)C(=O)N1CCC[C@H]1C(=O)N[C@@H](Cc1ccc(O)cc1)C(=O)N[C@@H](Cc1ccc(O)cc1)C(=O)N[C@@H](CO)C(=O)O)C(C)C)[C@@H](C)CC [SEQ ID NO:33] (H-VAIQNKNEIDYLNKVLPYYS-OH)	3-14%	113 # of cells	ability to upregulate integrins on leukocytes	–	–	–
CC(C)C[C@H](NC(=O)[C@H](CC(=O)O)NC(=O)CNC(=O)[C@H](CO)NC(=O)CNC(=O)[C@H](CCCNC(=N)N)NC(=O)[C@H](CC(C)C)NC(=O)[C@H](CCC(=O)O)NC(=O)[C@H](C)NC(=O)[C@@H](N)C(C)C)C(=O)N[C@@H](CCC(N)=O)C(=O)N[C@@H](CCC(=O)O)C(=O)N[C@@H](Cc1ccc(O)cc1)C(=O)N[C@@H](CC(C)C)C(=O)N[C@@H](CCCNC(=N)N)C(=O)N[C@@H](Cc1c[nH]cn1)C(=O)N[C@H](C(=O)N[C@H](C(=O)N[C@@H](CCCNC(=N)N)C(=O)NCC(=O)N[C@@H](Cc1c[nH]c2ccccc12)C(=O)N[C@@H](CO)C(=O)O)[C@@H](C)O)C(C)C [SEQ ID NO:34]	22-33%	18 # of cells	does not share this property	–	–	–
CC(C)C[C@H](NC(=O)[C@H](CC(=O)O)NC(=O)CN)C(=O)N[C@@H](CCC(N)=O)C(=O)N[C@@H](CCC(=O)O)C(=O)N[C@@H](Cc1ccc(O)cc1)C(=O)N[C@@H](CC(C)C)C(=O)N[C@@H](CCCNC(=N)N)C(=O)N[C@@H](Cc1c[nH]cn1)C(=O)N[C@H](C(=O)N[C@H](C(=O)N[C@@H](CCCNC(=N)N)C(=O)NCC(=O)N[C@@H](Cc1c[nH]c2ccccc12)C(=O)N[C@@H](CO)C(=O)O)[C@@H](C)O)C(C)C [SEQ ID NO:35, GDLQEYLRHVTRGWS]	0-14%	104 # of cells	–	–	–	–
CC(C)C[C@H](NC(=O)[C@H](Cc1ccc(O)cc1)NC(=O)[C@H](CCC(=O)O)NC(=O)[C@H](CCC(N)=O)NC(=O)[C@H](CC(C)C)NC(=O)[C@H](CC(=O)O)NC(=O)CNC(=O)[C@H](CO)NC(=O)CNC(=O)[C@H](CC(C)C)NC(=O)[C@H](CCC(=O)O)NC(=O)[C@H](C)NC(=O)[C@@H](NC(=O)[C@@H](NC(=O)[C@H](CC(C)C)NC(=O)[C@H](C)N)[C@@H](C)O)C(C)C)C(=O)O [SEQ ID NO:36, ALTVAELGSGDLQEYL] (H-ALTVAELGSGDLQEYL-OH)	–	232 # of cells	ability to upregulate integrins on leukocytes	80%	active	–
S3 with deletion 1: S3 protein from which the VA or YL region of the motif was deleted (TRALTRGNAELQTYLRQITP)	–	–	–	–	–	16%
